Test results published in paper PMC6934184, “Selective DNA-PKcs inhibition extends the therapeutic index of localized radiotherapy and chemotherapy” (The Journal of Clinical Investigation, 2019).

Target: T1, PTK6 (Brk) (Homo sapiens, UniProt Q13882)
T1 construct: purchased Thermo Fisher Scientific (Life Technologies) SelectScreen
Assay: SelectScreen Z'LYTE
Type: biochemical
Outline: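 SelectScreen broad panel; activity (Z'LYTE, Adapta) plus binding formats. ATP: Km app for CSF1R Z'LYTE; 10 for CAMK1 Adapta. Readout = % per kinase.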

T1 sequence (Q13882 whole entry): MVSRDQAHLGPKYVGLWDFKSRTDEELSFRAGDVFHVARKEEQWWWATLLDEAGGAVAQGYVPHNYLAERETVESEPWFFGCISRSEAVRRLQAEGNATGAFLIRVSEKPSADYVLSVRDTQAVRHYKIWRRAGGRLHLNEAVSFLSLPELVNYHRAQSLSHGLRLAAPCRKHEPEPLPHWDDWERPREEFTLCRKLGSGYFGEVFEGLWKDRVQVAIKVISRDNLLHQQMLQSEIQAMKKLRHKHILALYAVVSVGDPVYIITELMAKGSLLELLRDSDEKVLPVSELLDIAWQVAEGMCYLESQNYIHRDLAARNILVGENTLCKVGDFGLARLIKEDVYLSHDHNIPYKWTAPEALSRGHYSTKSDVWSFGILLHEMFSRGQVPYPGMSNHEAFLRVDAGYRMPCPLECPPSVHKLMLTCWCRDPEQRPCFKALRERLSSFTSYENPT

CN(C(=O)CN1CCOCC1)c1ccc2sc3c(-c4cccc5c(=O)cc(N6CC7CCC(C6)O7)oc45)cccc3c2c1 [NU5455]
inhibition at 1 µM: 0.7%
